# Laboratory results published in patent US9732047B2, “N-alkoxyamide conjugates as imaging agents” (Lantheus Medical Imaging, Inc., priority 2008, dated 2017).
# Where two headings read alike, the source gives them in different places.
# Legend:
# [1] = tested on: aorta; test: In vivo rabbit aorta MR imaging; set-up: species or system New Zealand White male rabbits; settings: atherosclerotic rabbit, 0.1 mmol/kg via marginal ear vein, MR at 4.7 T, shortly after injection
# Description: A series of pre-injection images were acquired. The rabbit was then injected with test compound (i.e., Example 31) at 0.1 mmol/kg via the marginal ear vein and images acquired at specified time intervals. All images were acquired at 4.7 T using an 8.5 cm field of view, 256×256 matrix using a black blood, flow-suppressed spin-echo method.
# [2] = tested on: Aorta bearing atherosclerotic plaque; test: Ex-vivo blood vessel binding assay; set-up: species or system New Zealand white rabbits; settings: 153Gd-labeled compound 0.135 μCi in PBS, 2 h at 37° C., plaque-bearing rabbit aorta sections; percentage of initial activity
# Description: Aorta bearing atherosclerotic plaque was obtained from New Zealand white rabbits that were balloon stripped along the abdominal aorta and placed on a high fat diet (0.5% cholesterol) for 16-22 weeks. Vascular injury was produced with a 4-F Fogarty catheter along the abdominal aorta and right iliofemoral artery. This procedure generates an accelerated complex lesion development with a lipid rich core covered by a fibrous cap in rabbits. Harvested aorta sections (0.5 cm) were incubated with 0.135 μCi of ^153Gd-labeled compound diluted in phosphate buffered saline (450 μL) for 2 h at 37° C. The supernatant was removed and analyzed by HPLC to assay compound stability. The tissue section was then washed with phosphate buffered saline (3×10 mL), then resuspended (10 mL) and incubated at 37° C. an additional 1 h. The supernatant was then removed, the washing process repeated and the tissue finally counted on a gamma counter. The amount of compound bound to the tissue was determined as a percentage of the initial activity according to the following formula: […]
# [3] = tested on: aorta; settings: 60 min post injection
# Description: The apolipoprotein E (ApoE) knockout mouse is a model of hypercholesterolemia that develops atherosclerotic lesions in the brachiocephalic artery, the aortic arch and the abdominal aorta. Mice were fed a high-fat diet to accelerate plaque formation and compounds were tested in the mice between 35-42 weeks on diet. Test compounds were administered at 0.3-0.4 mCi/kg to anesthetized mice in a single, bolus injection via the tail vein. Blood samples were collected via the tail between 0-30 min post injection for pharmacokinetic analysis and mice were euthanized by CO2 at 60 min for tissue harvesting. The aorta was first flushed with saline through the left ventricle exiting via the femoral vein then removed from the heart to the renal bifurcation; additional biological samples were also collected (blood, muscle, liver, kidney, bile, urine, heart, femur, reproductive organ, lung, spleen and innominate artery). All samples were weighed and assayed for radioactivity; uptake is expressed as a percentage of injected dose per gram of tissue (% ID/g).
# [4] = tested on: aorta; settings: 60 min post injection; remark: listed apart in the source
# Description: Atherosclerosis was induced in New Zealand White male rabbits (3 kg) with aortic balloon endothelial injury (vide supra) followed by feeding a 0.5% cholesterol diet for 22 weeks. Test compounds were administered at 0.01-0.05 mCi/kg to anesthetized rabbits in a single, bolus injection via the marginal ear vein. Blood samples were collected from the central ear artery at 0, 2, 5, 7, 10, 15, 30 and 60 min post injection. Rabbits were euthanized at 60 min post injection for tissue harvesting (blood, muscle, bile, urine, kidney, liver, spleen, heart, lung, colon, small intestine, stomach, testes and in some cases, sternum, ligament and right ear). Abdominal aorta (upper, middle, and lower) and left and right femoral arteries were also collected. All samples were weighed and assayed for radioactivity; uptake is expressed as percentage of injected dose per gram of tissue (% ID/g).
smiles,measurement,setting,value
CC(C)C[C@@H](N)C(=O)NOCc1ccc(CNC(=O)CN2CCN(CC(=O)[O-])CCN(CC(=O)[O-])CCN(CC(=O)[O-])CC2)cc1.[Gd+3] [Example 31],relative image intensity in the aorta,[1],marked increase of relative image intensity in the aorta
N[C@H](Cc1cc2ccccc2[nH]1)C(=O)NOCc1ccc(CNC(=O)CN2CCN(CC(=O)[O-])CCN(CC(=O)[O-])CCN(CC(=O)[O-])CC2)cc1.[153Gd+3] [Example 62],% bound,[2],17.1%
same,aorta uptake (% ID/g),"[3]; ApoE mice on high-fat diet 35-42 weeks, 0.3-0.4 mCi/kg bolus via tail vein",11.8 ± 1.4 % ID/g
same,aorta:blood,"[3]; ApoE mice, uptake ratio",5.7
same,aorta:heart,"[3]; ApoE mice, uptake ratio",22.2
same,aorta (% ID/g ± SD),"[4]; control rabbit (non-plaque bearing), 0.01-0.05 mCi/kg bolus via marginal ear vein",0.159 % ID/g
same,aorta:blood,[4]; control rabbit,3.2
same,aorta:heart,[4]; control rabbit,6.4
